Results reported in patent publication US7879887B2, “α-amino acid derivatives and medicaments containing the same as an active ingredient” (Nissan Chemical Industries, Ltd., priority 2006, dated 2011).
pIC50: −log10 of the molar value.

Key:
leukemia cell line KG-1a = experiment: Cell proliferation inhibitory activity, KG-1a; assay type: cell-based; details: cells counted 4 days later with Cell Counting Kit-8
Method: (§1) Evaluations were carried out using colon carcinoma cell line SW620 (Cat. No. CCL-227), lung carcinoma cell line NCI-H460 (Cat. No. HTB-177), prostate cancer cell line DU 145 (Cat. No. HTB-81), breast cancer cell line MDA-MB-231 (Cat. No. HTB26) and leukemia cell line KG-1a (Cat. No. CCL-246.1) purchased from ATCC, pancreatic cancer cell line MIAPaCa-2 (Cat. No. CRL-1420) purchased from Dainippon Pharmaceutical, and ovarian cancer cell line IGROV1 received from the Netherland Cancer Institute. The cells were cultured under the conditions recommended by the supplier for each cell line, or with respect to IGROV1, according to the method described in Cancer Res. 59: 4559-4563, 1999. Cells suspended in media were added to solutions containing the test substances at various concentrations followed by culturing in a 5% CO2 incubator at 37° C. The numbers of cells were counted 4 days later with the Cell Counting Kit-8. IC50 values were calculated by assigning measured values in the case of not containing a test substance to an inhibition of 0%, and assigning measured values in the case of not containing a test substance or cells to an inhibition of 100%.

CDK3/Cyclin E complex = biological target: T1, CDK3/Cyclin E complex (Homo sapiens, UniProt Q00526); experiment: In vitro kinase assay, CDK3/Cyclin E complex; assay type: biochemical; details: recombinant protein (Upstate); read-out: CDK3/cyclinE IC50
T1 construct: purchased Upstate Inc. 14-487
T1 sequence (Q00526 whole entry): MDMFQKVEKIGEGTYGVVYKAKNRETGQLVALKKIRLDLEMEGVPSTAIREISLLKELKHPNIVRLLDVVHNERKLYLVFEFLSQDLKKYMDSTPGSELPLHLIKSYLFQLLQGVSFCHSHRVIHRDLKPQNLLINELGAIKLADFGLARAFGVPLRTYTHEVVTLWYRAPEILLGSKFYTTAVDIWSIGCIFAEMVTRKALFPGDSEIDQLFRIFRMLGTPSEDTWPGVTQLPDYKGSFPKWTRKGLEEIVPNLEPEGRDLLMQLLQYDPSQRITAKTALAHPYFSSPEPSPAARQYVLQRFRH
T1 sequence (P24864 whole entry partner): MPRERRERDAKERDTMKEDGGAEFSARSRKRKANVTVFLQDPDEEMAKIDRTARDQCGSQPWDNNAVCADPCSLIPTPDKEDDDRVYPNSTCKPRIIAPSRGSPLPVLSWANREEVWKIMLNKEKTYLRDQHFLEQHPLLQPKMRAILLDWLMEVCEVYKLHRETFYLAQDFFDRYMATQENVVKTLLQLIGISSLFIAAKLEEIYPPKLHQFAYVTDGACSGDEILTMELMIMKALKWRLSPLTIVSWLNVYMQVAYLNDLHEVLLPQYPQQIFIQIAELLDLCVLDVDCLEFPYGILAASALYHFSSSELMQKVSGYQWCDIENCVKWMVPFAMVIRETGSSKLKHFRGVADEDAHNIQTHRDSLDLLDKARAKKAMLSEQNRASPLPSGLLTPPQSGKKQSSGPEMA
Method: (§2) Inhibitory activity against Aurora A, CDK1/Cyclin B complex, CDK2/Cyclin E complex and CDK3/Cyclin E complex were measured by in vitro kinase assay using recombinant proteins.

[1] = test system: colon carcinoma cell line SW620; experiment: Cell proliferation inhibitory activity, SW620; assay type: cell-based, human; details: cells counted 4 days later with Cell Counting Kit-8
Method: as §1

Aurora A = biological target: T2, Aurora A (Homo sapiens, UniProt O14965); experiment: In vitro kinase assay, Aurora A; assay type: biochemical; details: recombinant protein (Upstate)
T2 construct: purchased Upstate Inc. 14-511
T2 sequence (O14965 1-403): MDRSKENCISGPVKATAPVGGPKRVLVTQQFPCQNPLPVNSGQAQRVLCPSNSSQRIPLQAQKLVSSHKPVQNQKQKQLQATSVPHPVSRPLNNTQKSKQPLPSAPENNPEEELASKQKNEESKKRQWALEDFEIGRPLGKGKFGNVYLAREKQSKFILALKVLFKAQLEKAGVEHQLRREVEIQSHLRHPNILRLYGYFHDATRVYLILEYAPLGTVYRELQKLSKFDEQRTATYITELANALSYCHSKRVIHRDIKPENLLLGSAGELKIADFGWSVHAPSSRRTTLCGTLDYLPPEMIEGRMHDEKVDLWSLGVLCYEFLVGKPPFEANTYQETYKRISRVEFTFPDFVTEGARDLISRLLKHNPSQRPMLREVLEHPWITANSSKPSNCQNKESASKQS
Method: Inhibitory activity against Aurora A, CDK1/Cyclin B complex, CDK2/Cyclin E complex and CDK3/Cyclin E complex were measured by in vitro kinase assay using recombinant proteins. The assays were carried out by using recombinant proteins (Upstate Inc.) for Aurora A, CDK1/Cyclin B complex, CDK2/Cyclin E complex and CDK3/Cyclin E complex (respective cat. nos. 14-511, 14-450, 14-448 and 14-487), in accordance with the procedure described in the product instructions thereof. The 50% inhibitory concentrations (IC50 values) were calculated by assigning measured values in the case of not containing a test compound to an inhibition of 0%, and assigning measured values in the case of not containing a test compound and enzyme to an inhibition of 100%.

CDK2/Cyclin E complex = CDK2/Cyclin E complex (Homo sapiens, UniProt P24941); experiment: In vitro kinase assay, CDK2/Cyclin E complex; assay type: biochemical; details: recombinant protein (Upstate); read-out: CDK2/cyclinE IC50
Method: as §2

[2] = test system: prostate cancer cell line DU 145; experiment: Cell proliferation inhibitory activity, DU 145; assay type: cell-based, human; details: cells counted 4 days later with Cell Counting Kit-8
Method: as §1

Compound | pIC50 (leukemia cell line KG-1a; Homo sapiens, 96 h) | pIC50 (CDK3/Cyclin E complex) | pIC50 ([1]; Homo sapiens, SW-620, 96 h) | pIC50 (CDK2/Cyclin E complex) | other results
O=C(CNc1cccc(O)c1)Nc1nc2ccc3[nH]ncc3c2s1 [compound 2] | > 7.00 | 6.89 | 5.92 | 7.09 | pIC50 (Aurora A): 6.83
COc1cc(NCC(=O)Nc2nc3ccc4[nH]ncc4c3s2)ccc1Cl [compound 4] | 7.00 | 6.33 | 5.70 | 6.47 | –
O=C(CNc1cc(F)cc(F)c1)Nc1nc2ccc3[nH]ncc3c2s1 [compound 5] | – | – | – | – | pIC50 (leukemia cell line KG-1a): > 7.00
O=C(CNc1cccc(Cl)c1)Nc1nc2ccc3[nH]ncc3c2s1 [compound 8] | – | – | – | 6.77 | –
O=C(CNc1ccc2[nH]ncc2c1)Nc1nc2ccc3[nH]ncc3c2s1 [compound 13] | – | – | – | 6.38 | –
CS(=O)(=O)Nc1cccc(NCC(=O)Nc2nc3ccc4[nH]ncc4c3s2)c1 [compound 14] | 6.70 | 6.39 | – | 6.65 | –
O=C(CNc1ccc2cn[nH]c2c1)Nc1nc2ccc3[nH]ncc3c2s1 [compound 15] | – | 7.06 | – | 7.40 | –
O=C(CNc1ccccc1)Nc1nc2c(C(F)(F)F)cc3[nH]ncc3c2s1 [compound 18] | – | 6.42 | – | – | –
Cc1cc2[nH]ncc2c2sc(NC(=O)CNc3ccccc3)nc12 [compound 19] | – | 6.62 | 5.54 | 6.72 | –
O=C(CNc1ccccc1)Nc1nc2c(F)cc3[nH]ncc3c2s1 [compound 20] | – | – | – | – | pIC50 (leukemia cell line KG-1a): 7.00; pIC50 [1]: 5.89
COc1cccc(NC(C)C(=O)Nc2nc3ccc4[nH]ncc4c3s2)c1 (stereo not drawn) [compound 22] | > 7.00 | – | 5.77 | – | pIC50 (Aurora A): 6.41
COc1cccc(NC(CC(C)C)C(=O)Nc2nc3ccc4[nH]ncc4c3s2)c1 (stereo not drawn) [compound 26] | – | – | – | – | pIC50 (leukemia cell line KG-1a): 6.70
O=C(Nc1nc2ccc3[nH]ncc3c2s1)C(Nc1cccc(O)c1)c1ccccc1 (stereo not drawn) [compound 27] | 7.00 | – | – | – | pIC50 (Aurora A): 6.94
CCC(=O)Nc1cc(NC(C(=O)Nc2nc3c(C(F)(F)F)cc4[nH]ncc4c3s2)c2ccccc2)ccc1Cl (stereo not drawn) [compound 31] | – | 6.45 | 5.57 | 6.43 | –
COc1cccc(NC(C)(C)C(=O)Nc2nc3ccc4[nH]ncc4c3s2)c1 [compound 34] | 7.00 | – | – | – | pIC50 (Aurora A): 6.48
Cc1ccc(NC(C)(C)C(=O)Nc2nc3ccc4[nH]ncc4c3s2)cc1 [compound 39] | > 7.00 | 6.44 | 5.70 | 6.84 | –
COc1ccc(NC(C)(C)C(=O)Nc2nc3ccc4[nH]ncc4c3s2)cc1 [compound 40] | 6.70 | – | 5.64 | 6.47 | –
CC(C)(Nc1cccc(F)c1)C(=O)Nc1nc2ccc3[nH]ncc3c2s1 [compound 42] | > 7.00 | – | 5.66 | 6.36 | –
COc1cc(NC(C)(C)C(=O)Nc2nc3ccc4[nH]ncc4c3s2)ccc1Cl [compound 43] | 6.70 | – | – | – | pIC50 (Aurora A): 6.46
CCOC(=O)c1cc(NC(C)(C)C(=O)Nc2nc3ccc4[nH]ncc4c3s2)ccc1Cl [compound 44] | > 7.00 | 6.80 | – | 6.80 | pIC50 (Aurora A): 6.97; pIC50 ([2]; Homo sapiens, 96 h): 5.35
CC(C)OC(=O)c1cc(NC(C)(C)C(=O)Nc2nc3ccc4[nH]ncc4c3s2)ccc1Cl [compound 47] | > 7.00 | 6.46 | – | 6.59 | pIC50 (Aurora A): 6.83
CCOC(=O)c1cc(NC(C)(C)C(=O)Nc2nc3ccc4[nH]ncc4c3s2)ccc1F [compound 49] | > 7.00 | – | – | – | pIC50 (Aurora A): 6.58

Compound | pIC50 (leukemia cell line KG-1a; Homo sapiens, 96 h) | pIC50 (CDK3/Cyclin E complex) | pIC50 ([1]; Homo sapiens, SW-620, 96 h) | pIC50 (CDK2/Cyclin E complex) | other results
CC(C)(Nc1ccc(Cl)cc1)C(=O)Nc1nc2c(C(F)(F)F)cc3[nH]ncc3c2s1 [compound 59] | – | – | – | – | pIC50 [1]: 5.66; pIC50 [2]: 5.38
CC(C)(Nc1cccc(C(=O)O)c1)C(=O)Nc1nc2c(C(F)(F)F)cc3[nH]ncc3c2s1 [compound 66] | – | 6.48 | – | – | pIC50 (Aurora A): 6.53
CC(C)(Nc1cccc(F)c1)C(=O)Nc1nc2c(C(F)(F)F)cc3[nH]ncc3c2s1 [compound 67] | – | 6.43 | 5.52 | – | –
CC(C)(Nc1ccc(F)c(F)c1)C(=O)Nc1nc2c(C(F)(F)F)cc3[nH]ncc3c2s1 [compound 72] | – | 6.74 | 5.62 | 6.47 | pIC50 ([2]; Homo sapiens, 96 h): 5.46
CC(C)(Nc1ccc(F)cc1)C(=O)Nc1nc2c(C(F)(F)F)cc3[nH]ncc3c2s1 [compound 74] | – | 6.79 | 5.57 | 6.52 | pIC50 ([2]; Homo sapiens, 96 h): 5.41
CC(C)(Nc1cccc(NS(C)(=O)=O)c1)C(=O)Nc1nc2c(C(F)(F)F)cc3[nH]ncc3c2s1 [compound 79] | – | 6.58 | 5.62 | 6.77 | pIC50 ([2]; Homo sapiens, 96 h): 5.51
CC(C)(Nc1ccc(Cl)c(NC(=O)C2CC2)c1)C(=O)Nc1nc2c(C(F)(F)F)cc3[nH]ncc3c2s1 [compound 80] | – | 6.78 | 5.64 | 6.81 | pIC50 ([2]; Homo sapiens, 96 h): 5.39
CC(C)(Nc1ccc2[nH]c(=O)[nH]c2c1)C(=O)Nc1nc2c(C(F)(F)F)cc3[nH]ncc3c2s1 [compound 83] | – | – | – | 6.46 | –
CC(C)(Nc1ccc(Cl)cc1C(=O)NCC(N)=O)C(=O)Nc1nc2c(C(F)(F)F)cc3[nH]ncc3c2s1 [compound 88] | – | 6.41 | 5.54 | 6.35 | –
CC(C)(Nc1ccc(Cl)c(NC(=O)OCCO)c1)C(=O)Nc1nc2c(C(F)(F)F)cc3[nH]ncc3c2s1 [compound 89] | – | 6.98 | 5.66 | 6.65 | pIC50 ([2]; Homo sapiens, 96 h): 5.35
CON(C)C(=O)c1cc(Cl)ccc1NC(C)(C)C(=O)Nc1nc2c(C(F)(F)F)cc3[nH]ncc3c2s1 [compound 100] | 6.52 | 6.46 | 5.48 | 6.41 | –
O=C(CNc1ccc(F)cc1)Nc1nc2ccc3[nH]ncc3c2s1 [compound 105] | 7.00 | 6.59 | 5.82 | 6.69 | –
CC(=O)Nc1cccc(NCC(=O)Nc2nc3ccc4[nH]ncc4c3s2)c1 [compound 106] | > 7.00 | 6.82 | – | 7.26 | –
O=C(CNc1ccccc1)Nc1nc2ccc3[nH]nc(Cl)c3c2s1 [compound 108] | – | – | – | – | pIC50 (leukemia cell line KG-1a): 6.52
NC(=O)CC(Nc1cccc(O)c1)C(=O)Nc1nc2ccc3[nH]ncc3c2s1 (stereo not drawn) [compound 109] | > 7.00 | 7.26 | – | 7.25 | pIC50 (Aurora A): 6.44
COc1cccc(NC(CC(N)=O)C(=O)Nc2nc3ccc4[nH]ncc4c3s2)c1 (stereo not drawn) [compound 110] | – | 6.41 | – | 6.49 | –
O=C(Nc1nc2ccc3[nH]ncc3c2s1)C1CCCN1c1ccc(Cl)cc1 (stereo not drawn) [compound 111] | 6.30 | 6.58 | 5.64 | 7.00 | –
COc1cccc(NC2(C(=O)Nc3nc4ccc5[nH]ncc5c4s3)CC2)c1 [compound 119] | – | – | – | – | pIC50 (leukemia cell line KG-1a): 6.52; pIC50 [1]: 5.59
CC(C)OC(=O)c1cc(NC2(C(=O)Nc3nc4ccc5[nH]ncc5c4s3)CC2)ccc1Cl [compound 123] | – | 6.71 | 5.64 | 6.85 | –
CN(C)C(=O)c1cc(NC2(C(=O)Nc3nc4ccc5[nH]ncc5c4s3)CC2)ccc1Cl [compound 124] | – | – | – | – | pIC50 (leukemia cell line KG-1a): 7.00
CC(=O)Nc1cc(NC(C(=O)Nc2nc3ccc4[nH]ncc4c3s2)c2ccccc2)ccc1Cl (stereo not drawn) [compound 131] | – | 6.37 | 5.52 | 6.56 | pIC50 (Aurora A): 7.03
COC(=O)c1cccc(NCC(=O)Nc2nc3ccc4[nH]ncc4c3s2)c1 [compound 134] | > 7.00 | 6.32 | 5.72 | 6.47 | –
